From ChEMBL document CHEMBL4651402, “Screening of ~5500 FDA-approved drugs and clinical candidates for anti-SARS-CoV-2 activity” (2021)
Values joined by “and” are separate entries in the source; they are usually repeats but may differ in a detail not shown here. Equal values may be shown once.

Experiments:
SARS-CoV-2 [1] = experiment: microbe, parasite or virus in culture; format: functional, organism-based, Chlorocebus sabaeus, Vero C1008; conditions: Severe acute respiratory syndrome coronavirus 2, Vero C1008, 48 h
in vitro = conditions: chlorocebus sabaeus, Vero E6 (Vero C1008) cells
SARS-CoV-2 [2] = experiment: microbe, parasite or virus in culture; conditions: Severe acute respiratory syndrome coronavirus 2, Vero C1008, 48 h
SARS-CoV-2 [3] = conditions: vero c1008

SMILES | IC50 (SARS-CoV-2 [1]; read-out: IC50) [µM] | IC50 (SARS-CoV-2 [1]; read-out: pIC50 (converted)) [µM] | CC50 at 48 h (in vitro; CC50) [µM] | CC50 at 48 h (in vitro; pCC50) [µM] | IC50 (SARS-CoV-2 [2]) [µM] | IC50 (SARS-CoV-2 [2]; read-out: pIC50 (converted)) [µM] | IC50 (SARS-CoV-2 [3]) | pIC50 (SARS-CoV-2 [3])
Cc1[nH]c(/C=C2\C(=O)Nc3ccccc32)c(C)c1CCC(=O)O [ORANTINIB] | > 25.1 | > 25.1 | > 25.1 | > 25.1 | ~1.78 | ~1.78 |  | 
Cc1[nH]c(/C=C2/C(=O)Nc3ccccc32)c(C)c1CCC(=O)O | > 50.1 | > 50.1 | > 50.1 | > 50.1 | ~2 | ~2 |  | 
OCCN1CCN(CC/C=C2/c3ccccc3Sc3ccc(Cl)cc32)CC1 [ZUCLOPENTHIXOL] | > 100 | > 100 | 6.68 | 6.61 |  |  | 7.24 µM and > 20 µM | 5.14 and < 4.7
CN(C)CCOC1=Cc2ccccc2Sc2ccc(Cl)cc21 [ZOTEPINE] | > 100 | > 100 | 12.3 | 12.3 | > 100 | > 100 |  | 
CNCC(O)CC12CCC(c3ccccc31)c1ccccc12 (stereo not drawn) [OXAPROTILINE] | > 100 | > 100 | 28.2 | 28.2 | > 100 | > 100 |  | 
Cc1cc2nc3c(=O)[nH]c(=O)nc-3n(C[C@H](O)[C@H](O)[C@H](O)CO)c2cc1C [RIBOFLAVIN] | > 50.1 | > 50.1 | > 50.1 | > 50.1 | ~11.2 | ~11.2 |  | 
C#C[C@]1(O)CCC2C3CCc4cc(OC5CCCC5)ccc4C3CCC21C (stereo partly drawn) | > 100 | > 100 | 7.59 | 7.59 | 8.71 | 8.71 |  | 
Cc1cc(C)c2nc(-c3cnc(NCCCC4CCN(C)CC4)nc3C)[nH]c2c1 [TOREFORANT] | > 50.1 | > 50.1 | 22.4 | 22.4 | > 25.1 | > 25.1 |  | 
Cn1cncc1[C@@](N)(c1ccc(Cl)cc1)c1ccc2c(c1)c(-c1cccc(Cl)c1)cc(=O)n2C [TIPIFARNIB] | > 100 | > 100 | 13.3 | 13.2 | > 100 | > 100 |  | 
COc1cc(Br)c2oc(C3CCNCC3)cc2c1 [BROFAROMINE] | > 100 | > 100 | 19.1 | 19.1 | 14.8 | 14.8 |  | 
COc1cc2c3cc1Oc1c(OC)c(OC)cc4c1[C@@H](Cc1cccc(c1)Oc1ccc(c(O)c1)C[C@@H]3N(C)CC2)N(C)CC4 | > 6.31 | > 6.31 | 10.2 | 10.2 | 8.51 | 8.51 |  | 
CC(=O)N1CCN([C@H]2CCN(C(=O)N(C)[C@H](C)c3cc(C(F)(F)F)cc(C(F)(F)F)c3)[C@@H](c3ccc(F)cc3C)C2)CC1 [CASOPITANT] | > 25.1 | > 25.1 | 17.8 | 17.8 | > 25.1 | > 25.1 |  | 
CN1CCC(c2cc3cc(Cl)ccc3o2)CC1 | > 100 | > 100 | 34.7 | 34.7 | 17.2 | 17 |  | 
COc1cc(/C=C/C(=O)N2CCC=CC2=O)cc(OC)c1OC [PIPLARTINE] | > 50.1 | > 50.1 | 9.55 | 9.55 | > 50.1 | > 50.1 |  | 
O=C(N[C@H]1CN2CCC1CC2)c1cc2cccc(Cl)c2s1 [ENCENICLINE] | > 100 | > 100 | 20.9 | 20.9 | > 100 | > 100 |  | 
CC(C)(Cc1c[nH]c2ccccc12)NCC(O)COc1ccccc1C#N (stereo not drawn) [BUCINDOLOL] | > 100 | > 100 | 30.9 | 30.9 | 17 | 17 |  | 
Cc1c(-c2ccccc2)oc2c(C(=O)OC(C)(C)CN3CCCCC3)cccc2c1=O [TERFLAVOXATE] | > 100 | > 100 | ~63.1 | ~63.1 | > 100 | > 100 |  | 
CC(=O)[C@@]12OC(C)(c3ccccc3)O[C@@H]1CC1C3CCC4=CC(=O)CCC4(C)C3CCC12C (stereo partly drawn) | > 12.6 | > 12.6 | 15.5 | 15.5 | > 100 | > 100 |  | 
COc1cc2c3cc1Oc1cc(ccc1O)C[C@@H]1c4c(cc(OC)c(O)c4Oc4ccc(cc4)C[C@H]3N(C)CC2)CCN1C | ~5.37 | ~5.37 | 11.5 | 11.5 | > 10 | > 10 |  | 
CN1CCN(CCCN2c3ccccc3Sc3ccc(S(=O)(=O)N(C)C)cc32)CC1 [THIOPROPERAZINE] | > 100 | > 100 | 6.31 | 6.31 | 13.2 | 13.2 |  | 
Cc1c(CN2CCN(c3cccc(C(F)(F)F)c3)CC2)cc(-c2ccccc2)n1NC(=O)c1ccncc1 [SUDOTERB] | > 100 | > 100 | ~14.3 | ~14.1 | > 100 | > 100 |  | 
Cc1ccccc1CN1CCN(CCOC(c2ccccc2)c2ccccc2Cl)CC1 (stereo not drawn) [CHLORBENZOXAMINE] | > 25.1 | > 25.1 | 15.3 | 15.1 | > 100 | > 100 |  | 
NC(=O)C(c1ccccc1)(c1ccccc1)[C@@H]1CCN(CCc2ccc3c(c2)CCO3)C1 [DARIFENACIN] | > 100 | > 100 | 56.2 | 56.2 | > 25.1 | > 25.1 |  | 
